We go through five molecules from patent publication US8318105B2, “Systems and methods for biomarker analysis” (priority 2010, dated 2012).

Test [1] concerns peroxidase. The test can be described thus: Peroxidase assay in saliva (Amplex Red). The class given is biochemical. Conditions: compound prepared at 500 ppm, 30 minutes, FIGS. 26-29. As to the method: To determine the effect of various GRAS compounds as inhibitors of peroxidase activity, a standard assay using Amplex® Red (Life Technologies), which releases a fluorescent oxidation product.
The test compounds, such as GRAS materials or cocktails of same, were prepared at a concentration of 500 ppm in distilled water. For the assay, 50 μl samples of test compounds were mixed with 20-30 μl of saliva (either “pooled” or “unpooled”) prior to the addition of Amplex® Red. […] Reactions were allowed to run for 30 minutes during these assays.

For test [2], the target named is T1, α-amylase (Homo sapiens, UniProt P0DUB6).
T1 sequence (P0DUB6 16-511): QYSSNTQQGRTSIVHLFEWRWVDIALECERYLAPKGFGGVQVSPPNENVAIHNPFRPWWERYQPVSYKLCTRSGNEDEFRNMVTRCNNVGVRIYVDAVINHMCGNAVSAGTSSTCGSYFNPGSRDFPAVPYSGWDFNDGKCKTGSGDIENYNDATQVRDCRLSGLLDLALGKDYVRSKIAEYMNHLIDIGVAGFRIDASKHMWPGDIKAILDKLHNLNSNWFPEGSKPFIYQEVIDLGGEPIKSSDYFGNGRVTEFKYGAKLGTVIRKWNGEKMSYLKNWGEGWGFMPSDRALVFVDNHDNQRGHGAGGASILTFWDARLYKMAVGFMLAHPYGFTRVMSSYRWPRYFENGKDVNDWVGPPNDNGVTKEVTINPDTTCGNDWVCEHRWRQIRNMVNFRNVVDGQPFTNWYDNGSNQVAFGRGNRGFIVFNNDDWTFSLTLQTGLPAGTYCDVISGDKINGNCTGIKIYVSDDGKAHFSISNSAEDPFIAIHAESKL
Nature of the test: α-Amylase inhibition saliva screening (chromogenic substrate, absorbance 405 nm). In kind it is biochemical. Conditions: test compound prepared at 5,000 ppm, 37° C.; for absorbance at 405 nm, single readings: four replicate readings. An excerpt: Further details of these five compounds may also be seen in Table 4.

Test [3] concerns protease. To be noted: natural protease inhibitors from food; cited from earlier work.

“And” between values parts separate entries of the source, which are not always exact repeats. Equal values may be shown once.

For the molecule `Cn1c(=O)c2c(ncn2C)n(C)c1=O` [CDI #33, Caffeine], in test [1], the peroxidase inhibition result is reported as “significant peroxidase inhibition capabilities”.
Still for that read-out and setting: under `COc1ccc(O)c(C(C)(C)C)c1` [CDI-039, 3-tert--butyl-hydroxyanisole] stands “significant peroxidase inhibition capabilities”.
Consider “Aluminum potassium sulfate dodecahydrate [CDI-42]”, for which the peroxidase inhibition result in test [1] is given as “significant peroxidase inhibition capabilities”. In addition, the “Ave (absorbance at 405 nm)” value in test [2] (0 min) was determined as 0.92. Besides, the “absorbance at 405 nm, single readings” value in test [2] (0 min) is 0.80 and 1.13 and 0.90 and 0.84; in test [2] (5 min) it was 1.65 and 2.15 and 1.80 and 1.81; in test [2] (15 min) it was 2.37 and 2.38 and 2.25 and 2.17.
Regarding Aluminum sulfate hydrate [CDI-34], the “Ave (absorbance at 405 nm)” value came out at 0.40 in test [2] (0 min), 0.50 in test [2] (5 min) and 0.56 in test [2] (15 min). Also, the “absorbance at 405 nm, single readings” value in test [2] (0 min, sulfate hydrate) is 0.40 (2×) and 0.36 and 0.45; in test [2] (5 min, sulfate hydrate), 0.49 and 0.50 (2×) and 0.52; in test [2] (15 min, sulfate hydrate), 0.53 and 0.61 and 0.54 and 0.56.

B1: Soybeans: primary soybean protease inhibitor, 20.7-22.3 kDa (protein, UniProt P01070 25-205, looked up)
Trypsin inhibitor A: DFVLDNEGNPLENGGTYYILSDITAFGGIRAAPTGNERCPLTVVQSRNELDKGIGTIISSPYRIRFIAEGHPLSLKFDSFAVIMLCVGIPTEWSVVEDLPEGPAVKIGENKDAMDGWFRLERVSDDEFNNYKLVFCPQQAEDDKCGDIGISIDHDDGTRRLVVSKNKPLVVQFQKLDKESL
Take B1: in test [3], the Inhibitory power is 1.2 times times weight.
